Experimental data taken from US8273881B2, “Phenazine compounds and use thereof in autoimmune and inflammatory diseases” (JJ Pharma, Inc., priority 2007, dated 2012).

What was measured:
Type in all cases: in vivo, DBA/1 LacJ mice
[1] = system: Type II collagen-induced arthritis (CIA) in mice; assay: Collagen-induced arthritis (CIA) mouse model, clinical assessment (involved paws, arthritis score); conditions: for arthritis score vs saline control treated mice (FIG. 2), overall statement: CIA mice, route not specified; for Day post the start of therapy from which a significant reduction (p<0.02) in arthritis score was achieved: each agent at its regimen, Formula III via i.p.
Text: Type II collagen-induced arthritis (CIA) in mice is an accepted experimental model of arthritis with a number of pathological, immunological and genetic features in common with rheumatoid arthritis. This disease is induced by immunization of susceptible strains of mice with type II collagen, the major component of joint cartilage. A progressive, inflammatory arthritis develops in the majority of immunized animals, which is characterized clinically by erythema and edema, with affected paw width increases of typically 100%. A clinical scoring index has been developed to assess disease progression to joint distortion and spondylitis. […] Immunological laboratory findings include high antibody levels to type II collagen and hypergammaglobulinemia.
This study was designed to evaluate the anti-inflammatory and anti-arthritic activity of compound of Formula III using the CIA model by observing changes in immune parameters due to treatment. The animals were administered oral corticosteroid, Enbrel, an injectable TNF inhibitor, and compound of Formula III using both oral and parenteral delivery. Seventy-five DBA/1 LacJ mice 8-10 weeks of age were obtained from Jackson Labs and quarantined in our facility for 10 days prior to experimentation. All mice weighed >16 grams at the start of the experiment. Mice were pre-bled by retro-orbital puncture, and injected with 100 μg Bovine type II collagen in Freund's complete adjuvant (FCA) intradermally at the base of the tail. Mice were monitored by daily examination for the onset of disease. Mice that developed CIA between 20 days post immunization and 42 days post immunization were assigned to one of five treatment groups on a rotational basis (to normalize onset date), and ten mice were assigned to each group. For administration, compound of Formula III was solubilized in sterile saline. To facilitate drugs delivered by oral administration, carboxymethylcellulose was added to a final concentration of 4% in all gavage solutions. Compounds were administered according to the following schedule: • Group 1. 100 μl sterile saline vehicle injected intraperitoneally (i.p.)×3/week. • Group 2. 100 μl sterile saline containing compound of Formula III at 40 mg/kg injected i.p.×3/week. • Group 3. 100 μl sterile saline containing 100 μg Enbrel injected i.p.×3/week. • Group 4. 100 μl sterile saline containing compound of Formula III at 40 mg/kg gavaged×5/week.
Group 5. 100 μl sterile saline containing prednisolone 10 mg/kg gavaged×5/week.
Mice were weighed weekly, and overall health status noted. Arthritiic animals were clinically assessed by visual inspection five times per week, and paw swelling quantified by caliper measurements made three times per week, until seven weeks after the initial onset of arthritis. All animals were assessed individually from the time of disease onset, and the appropriate findings were entered into clinical report forms.

total serum Ig = assay: ELISA of total serum immunoglobulin levels in CIA mice; conditions: prednisolone gavage; Formula III i.p.; vs control at disease onset or conclusion of trial
Experimental: (§1) All mice were pre-bled prior to the start of the trial, subsequently at onset of arthritis and at the completion of the trial. Sera were separated and stored at −80° C. ELISA assays were performed to determine anti-type II collagen antibody levels and total immunoglobulin levels.
Serum Ig levels was assessed using an ELISA assay. Dynatech Immulon I 96 well ELISA plates were coated with a 1/250 dilution of rabbit anti-mouse IgG (Axell) in PBS overnight at 4° C. Plates were washed ×3 with PBS containing 0.05% Tween, and blocked by the addition of 5% BSA in PBS. Serum samples diluted 1/400 in PBS/BSA was dispensed in triplicate, and a reference curve constructed by a doubling dilution titer of mouse Ig reference serum (Miles) from 1/500 to 1/256,000. The plate was incubated overnight at room temperature, and washed ×3 with PBS/Tween. One hundred μl of goat anti-IgG conjugated with alkaline phosphatase (Fisher-Biotek) (1:500 dilution in Milk/PBS/Tween) was added, and the incubation continued for 1 hour at 37° C. After washing×3 with PBS/Tween, 100 μl of paranitrophenyl phosphate solution (PNPP tablets, Sigma) in diethylolamine buffer was added to each well, and the reaction allowed to proceed for 20 minutes in the dark. The plate was read at 405 nm using a Photospectrometer (Molecular Devices), and the data analyzed using the SOFTmax analytical software package. […]

[2] = system: anti-type II collagen antibody; conditions: after seven weeks of treatment; for terminal anti-CII levels compared with control mice: p<0.01, prednisolone gavage, Formula III i.p.; for terminal anti-CII levels compared with titers at disease onset: prednisolone 10 mg/kg gavage, Formula III 40 mg/kg i.p.
Experimental: as §1
ELISA plates (Nunc-Immuno plates, Denmark) were coated with 100 μl of coating buffer (0.4M phosphate buffer ph7.6) containing 5 μg of type II collagen, at 4° C. overnight. Plates were washed 3 times with PBS containing 0.05% Tween 20 (Sigma, St. Louis, Mo.) and non specific binding was blocked by PBS containing 5% non fat milk overnight at 4° C. Mouse sera diluted to 1/100 in 5% milk/PBS was added to each well and incubated overnight at 4° C. Subsequently, the plates were washed six times in PBS containing 0.05% Tween-20 and incubated with alkaline phosphatase conjugated goat anti-mouse Ig (Southern Biotechnology Associates, Birmingham, Ala.) at 37° C. for 1 hour. Plates were washed 6 times again and developed for 40 minutes in the dark, using p-nitrophenyl phosphate (Sigma, St. Louis, Mo.) as a chromatogen substrate. The resulting optical density was measured at 405 nm by using a UV max spectrophotometer (Molecular Devices, CA). Negative pre-bleed control sera and a standard mouse anti-CII antiserum were titered on each plate to ensure uniformity of the assay. Antibody binding was expressed as OD405 units-blank.

lymph node cells = assay: Lymph node cell mitogen and antigen proliferative responses (MTT) from treated CIA mice; conditions: lymphocytes from mice treated 40 mg/kg i.p.; p<0.05
Experimental: Spleen and lymph nodes were removed at sacrifice, and mitogen responses to Con A and LPS, and antigen proliferative responses to type II collagen were determined using standard techniques. Lymph nodes and spleens were harvested and 1 ml of cell suspension (2.5×10^6/ml) cultured in 12-well tissue culture plates (Costar, Corning, N.Y.) with various stimuli in complete RPMI-1640 medium. Cells were incubated for 3 days at 37° C. in a 5% CO2 atmosphere in the presence of mitogen or antigen. 20 µl of MTT (a mitochondrial enzyme substrate) solution (5 mg/ml; Sigma, St Louis, Mo.) was added per well. After 6 hours, the culture supernatant was discarded, and 200 µl of 10% SDS solution added to each well. After incubation at 37° C. overnight, the optical density at 590 nm was read using a microplate photospectrometer (Molecular Devices, CA). The mean and OD values, which provide a measure of cell proliferation, were recorded for each cell sample with respect to antigen stimulation. Antigen specific responses were expressed as (OD590 [Stimulated Culture]−OD590 [Spontaneous proliferation culture])/OD590 [Spontaneous proliferation culture].

Compound | number of involved (arthritic) paws vs control mice ([1]; 100 μg Enbrel i.p. ×3/week, Day 25 through Day 28, p<0.05) | reduction in arthritis score vs saline control ([1]; 100 μg Enbrel i.p. ×3/week, p<0.02 from Day 12, not sustained until 23 days of therapy) | arthritis score vs saline control treated mice (FIG. 2), overall statement [1] | Day post the start of therapy from which a significant reduction (p<0.02) in arthritis score was achieved [1] [days] | total serum Ig levels at the terminal bleed vs control mice (total serum Ig) | terminal anti-CII levels compared with control mice [2] | terminal anti-CII levels compared with titers at disease onset [2] | number of involved (arthritic) paws vs control mice ([1]; prednisolone 10 mg/kg gavaged ×5/week, from Day 16 after arthritis onset throughout the study, p<0.002) | reduction in arthritis score vs saline control ([1]; prednisolone 10 mg/kg gavaged ×5/week, p<0.02 from Day 12, p<0.001 at day 17, sustained for remainder of trial) | number of involved paws vs control mice ([1]; 40 mg/kg i.p. ×3/week or gavaged ×5/week, irrespective of the route of administration) | reduction in arthritis score vs saline control ([1]; 40 mg/kg i.p. ×3/week, p<0.02 from Day 23, p<0.007 at Day 24, sustained until end of trial) | effect upon arthritis score vs saline control ([1]; 40 mg/kg oral gavage ×5/week) | lymph node cell response to LPS (lymph node cells)
Enbrel | significantly lower number of arthritic paws | significant reduction | significantly reduced the arthritis score | 12 |  |  |  |  |  |  |  |  | 
C[C@]12C=CC(=O)C=C1CC[C@@H]1[C@@H]2[C@@H](O)C[C@@]2(C)[C@H]1CC[C@]2(O)C(=O)CO [prednisolone] |  |  | significantly reduced the arthritis score | 12 | this reduction was not significantly different | significant reduction | minor decrease | significantly lower number of arthritic paws | significant reduction |  |  |  | 
COc1cccc2c1[n+]([O-])c1cccc(O)c1[n+]2[O-] [compound of Formula III] |  |  | marked effect upon the arthritis score | 23 | this reduction was not significantly different | significant reduction | maintenance of titers equivalent to the levels at onset |  |  | did not significantly influence the number of involved paws | significant reduction | did not exert a statistically significant effect | significant reduction
